Experimental data as given in patent publication US20210032253A1, “PYRAZOLO[1,5-A][1,3,5]TRIAZINE-2-AMINE DERIVATIVE, PREPARATION METHOD THEREFOR AND MEDICAL USE THEREOF” (JIANGSU HENGRUI MEDICINE CO., LTD., priority 2018, published 2021).

Tests used:
[1] = target: T1, adenosine A2a receptor (A2aR) (Homo sapiens, UniProt P29274); test: Inhibition of adenosine A2a receptor cAMP signaling pathway in CHO-K1/A2aR cells (HTRF cAMP dynamic 2 kit); assay type: cell-based; settings: Table 1, 20 nM ethylcarbazole
T1 construct: expressed in transfected cells; host or cells: CHO-K1
T1 sequence (P29274 whole entry): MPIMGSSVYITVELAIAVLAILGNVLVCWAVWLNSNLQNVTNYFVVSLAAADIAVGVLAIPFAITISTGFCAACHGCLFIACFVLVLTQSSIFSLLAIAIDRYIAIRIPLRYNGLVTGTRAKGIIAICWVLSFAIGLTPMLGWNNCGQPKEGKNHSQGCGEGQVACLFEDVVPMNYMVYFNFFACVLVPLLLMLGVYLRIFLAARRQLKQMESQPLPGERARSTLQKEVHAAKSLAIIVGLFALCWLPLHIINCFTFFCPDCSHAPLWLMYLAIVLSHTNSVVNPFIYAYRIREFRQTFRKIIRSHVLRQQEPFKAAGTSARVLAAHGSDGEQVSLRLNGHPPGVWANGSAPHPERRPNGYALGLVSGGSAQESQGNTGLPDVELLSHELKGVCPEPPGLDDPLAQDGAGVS
Method in brief: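 CHO-K1/A2aR cells (10^6 cells/mL) in HBSS with 20 mM HEPES, 0.1% BSA, rolipram and adenosine deaminase, exposed to compound (0.001024–10000 nM) for 30 min at RT. Then agonist "ethylcarbazole" at 20 nM final, 30 min RT. cAMP read by HTRF after 1 h in lysis buffer.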

[2] = Pharmacokinetics assay in mice after intragastrical administration (plasma, LC/MS/MS); assay type: in vivo; settings: mouse, po, C57 mice (female), 2 mg/kg; for Vd/F: read-out: Apparent distribution volume Vz/F; for AUC: read-out: Area under curve AUC; for CL/F: read-out: Clearance CLz/F; for Cmax: read-out: Drug concentration in blood Cmax; for half-life: read-out: Half-life T1/2 (converted); for MRT: read-out: Residence time MRT
Method: Test Example 2. Pharmacokinetics assay of the compounds of the present disclosure in mice
Mice were used as test animals. The drug concentration in plasma at different time points was determined by LC/MS/MS method after intragastrical administration of the compounds of Example 1, Example 18 and Example 19 to mice. The pharmacokinetic behavior of the compounds of the present disclosure was studied and evaluated in mice.
Twenty-seven C57 mice (female) were purchased from Shanghai Jiesijie Laboratory Animal Co., LTD, with Certificate No.: SCXK (Shanghai) 2013-0006, and equally divided into 3 groups (9 mice per group).
A certain amount of the test compound was weighed, and added with 2.5% by volume of DMSO, 2.5% by volume of tween 80 and 95% by volume of normal saline to prepare a 0.1 mg/mL colorless, clear and transparent solution.
After an overnight fast, C57 mice were administered intragastrically with the test compounds at an administration dose of 2.0 mg/kg and an administration volume of 0.2 mL/10 g.
The mice were intragastrically administered with the compounds of Example 1, Example 18 and Example 19. 0.1 mL of blood (3 animals at each time point) was taken before administration and at 0.5, 1.0, 2.0, 4.0, 6.0, 8.0, 11.0 and 24.0 hours after administration. The samples were stored in heparinized tubes, and centrifuged for 10 minutes at 3,500 rpm to separate the plasma. The plasma samples were stored at −20° C., the mice was feed 2 hours after administration.
The content of the test compounds in the plasma of the mice after intragastrical administration of the test compounds at different concentrations was determined: 25 μL of the plasma obtained at each time point after administration was taken, added with 30 μL of the internal standard solution of camptothecin (100 ng/mL) and 200 μL of acetonitrile, vortex-mixed for 5 minutes, and centrifuged for 10 minutes (4000 rpm). 3 μL of the supernatant was taken for LC/MS/MS analysis.

| IC50 [1] [nM] | Vd/F [2] [L/kg] | AUC [2] [ng·h/mL] | CL/F [2] [mL/min/kg] | Cmax [2] [ng/mL] | half-life [2] [h] | MRT [2] [h] | SMILES |
| --- | --- | --- | --- | --- | --- | --- | --- |
| 0.33 | 1.9 | 724 | 45.9 | 800 | 0.48 | 0.85 | Cc1ccc(-c2nc(N)nc3c(Cc4cccc(CO[C@H]5CCOC5)n4)cnn23)o1 [Example 1, (S)-4-(5-Methylfuran-2-yl)-8-((6-(((tetrahydrofuran-3-yl)oxy)methyl)pyridin-2-yl)methyl)pyrazolo[1,5-a][1,3,5]triazin-2-amine] |
| 0.87 | 0.841 | 4860 | 6.83 | 3180 | 1.42 | 1.63 | Cc1ccc(-c2nc(N)nc3c(Nc4cccc(CO[C@H]5CCOC5)n4)cnn23)o1 [Example 18, (S)-4-(5-Methylfuran-2-yl)-N^8-(6-(((tetrahydrofuran-3-yl)oxy)methyl)pyridin-2-yl)pyrazolo[1,5-a][1,3,5]triazine-2,8-diamine] |
| 0.36 | 2.12 | 2490 | 13.3 | 2360 | 1.85 | 1.24 | Cc1ccc(-c2nc(N)nc3c(Oc4cccc(CO[C@H]5CCOC5)n4)cnn23)o1 [Example 19, (S)-4-(5-Methylfuran-2-yl)-8-((6-(((tetrahydrofuran-3-yl)oxy)methyl)pyridin-2-yl)oxy)pyrazolo[1,5-a][1,3,5]triazin-2-amine] |
